5 molecules from ChEMBL document CHEMBL1201862, “PubChem BioAssay data set” (2004) can be followed below.

The source made the active and inactive calls. Some results are limits rather than exact numbers.

One assay deals with Escherichia coli. As to the kind of experiment: microbe, parasite or virus in culture.
The nature of assay [1]: inhibitors of intracellular T. cruzi replication, confirmation, NIH3T3 host cells, beta-gal luminescence (AID 2044).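 Also: intracellular parasites grown in NIH/3T3 mouse fibroblasts as host cells; luminescent beta-galactosidase reporter signal from transgenic T. cruzi replicating inside host cells; inhibitors lower the luminescence signal.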 Format: functional, cell-based.
Assay [2] can be described thus: cytotoxicity toward NIH3T3 fibroblasts, dose response, counter-screen, cell-based, ATP luminescence, mouse fibroblasts (AID 2010).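 Also: cells exposed to compound for about 90 hours before reading.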 Format: functional.
For another assay, the target named is T1, Bcl-2-related protein A1 (Mus musculus, UniProt Q07440).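 Also: confirmatory dose–response counterscreen on Bfl-1, used to check hits from a UBC13 polyubiquitin inhibitor campaign.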
T1 sequence (Q07440 whole entry): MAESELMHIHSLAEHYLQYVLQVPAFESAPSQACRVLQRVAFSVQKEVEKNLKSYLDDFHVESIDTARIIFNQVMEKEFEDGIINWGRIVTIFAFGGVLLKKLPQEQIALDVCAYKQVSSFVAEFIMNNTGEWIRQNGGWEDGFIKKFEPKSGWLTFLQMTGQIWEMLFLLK
Format: functional.

In assay [3] the target is T2, Ubiquitin-conjugating enzyme E2 N (Homo sapiens, UniProt P61088).
T2 sequence (P61088 whole entry): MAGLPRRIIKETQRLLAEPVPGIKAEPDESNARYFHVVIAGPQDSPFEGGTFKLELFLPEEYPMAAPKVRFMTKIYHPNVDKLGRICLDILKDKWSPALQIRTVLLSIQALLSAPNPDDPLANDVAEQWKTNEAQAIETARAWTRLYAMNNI
Format: functional.

In assay [4] the target is T2, Ubiquitin-conjugating enzyme E2 N. Format: functional. This is another data set of the same source.
Assay [5] has as its target T3, Microphthalmia-associated transcription factor (Homo sapiens, UniProt O75030).
T3 sequence (O75030 whole entry): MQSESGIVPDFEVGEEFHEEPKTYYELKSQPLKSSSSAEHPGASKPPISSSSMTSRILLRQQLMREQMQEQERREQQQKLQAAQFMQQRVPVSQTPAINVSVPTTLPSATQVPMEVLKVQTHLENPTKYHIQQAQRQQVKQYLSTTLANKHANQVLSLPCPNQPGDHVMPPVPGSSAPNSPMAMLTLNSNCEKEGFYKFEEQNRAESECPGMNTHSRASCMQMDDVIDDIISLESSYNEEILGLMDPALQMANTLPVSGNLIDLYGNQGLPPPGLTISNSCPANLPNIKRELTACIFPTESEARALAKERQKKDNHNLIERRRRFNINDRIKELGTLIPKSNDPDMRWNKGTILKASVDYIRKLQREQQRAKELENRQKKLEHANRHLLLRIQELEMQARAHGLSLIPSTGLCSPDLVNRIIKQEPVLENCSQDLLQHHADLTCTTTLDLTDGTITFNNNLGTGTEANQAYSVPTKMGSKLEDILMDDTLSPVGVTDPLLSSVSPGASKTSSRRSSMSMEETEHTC
In words: TRPM1 promoter luciferase signal decrease, dose response, MITF inhibitor project, cell-based, SK-MEL-5, cherry-picked, set 3 (AID 493073).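 Also: SK-MEL-5 melanoma cells with luciferase driven by the MITF target TRPM1 promoter.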 The format is functional.

The nature of assay [6]: cytotoxicity in HEK-293T cells, dose response, cytotoxicity control for BCR NF-kB inhibitor project, luminescence, B-cell screen hits (AID 489021).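 Also: HEK-293T cells carrying an NF-kB luciferase reporter; cells exposed to compound for about 14 hours before viability readout.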 Format: functional, cell-based.
For the next assay, the system named is INS1. In words: beta cell apoptosis inhibitors, cytokine rescue, dose response, luminescence, retest (AID 449756).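 Also: cell death triggered by IL-1 beta plus TNF-alpha plus IFN-gamma mixture; protective hits raise ATP signal compared with cytokine alone wells.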 The format is functional, cell-based. The note with it: Rattus norvegicus.
In a further assay the test system is A-375. As to the kind of experiment: A375 melanoma cell viability reduction, dose response, counter-screen for MITF modulator project, cherry-pick samples, set 2 (AID 540335). The format is functional, cell-based. The note with it: Homo sapiens.
The next assay deals with HeLa. In words: HeLa cell cytotoxicity, dose response, cytotoxicity control for MITF activator project, CellTiter-Glo luminescence, cherry-pick samples (AID 540259). The note with it: Homo sapiens. The format is functional, cell-based. (Cellular ATP, detected with luciferase, serves as a proxy for viable cell number.)
The next assay has as its target Tumor necrosis factor (Homo sapiens, UniProt P01375). As to the kind of experiment: TNFa-triggered NF-kB activation inhibitors, SAR follow-up, cell-based, revised (AID 2337). The format is functional.
The target of assay [7] is T4, Nucleotide-binding oligomerization domain-containing protein 1 (Homo sapiens, UniProt Q9Y239).
T4 sequence (Q9Y239 whole entry): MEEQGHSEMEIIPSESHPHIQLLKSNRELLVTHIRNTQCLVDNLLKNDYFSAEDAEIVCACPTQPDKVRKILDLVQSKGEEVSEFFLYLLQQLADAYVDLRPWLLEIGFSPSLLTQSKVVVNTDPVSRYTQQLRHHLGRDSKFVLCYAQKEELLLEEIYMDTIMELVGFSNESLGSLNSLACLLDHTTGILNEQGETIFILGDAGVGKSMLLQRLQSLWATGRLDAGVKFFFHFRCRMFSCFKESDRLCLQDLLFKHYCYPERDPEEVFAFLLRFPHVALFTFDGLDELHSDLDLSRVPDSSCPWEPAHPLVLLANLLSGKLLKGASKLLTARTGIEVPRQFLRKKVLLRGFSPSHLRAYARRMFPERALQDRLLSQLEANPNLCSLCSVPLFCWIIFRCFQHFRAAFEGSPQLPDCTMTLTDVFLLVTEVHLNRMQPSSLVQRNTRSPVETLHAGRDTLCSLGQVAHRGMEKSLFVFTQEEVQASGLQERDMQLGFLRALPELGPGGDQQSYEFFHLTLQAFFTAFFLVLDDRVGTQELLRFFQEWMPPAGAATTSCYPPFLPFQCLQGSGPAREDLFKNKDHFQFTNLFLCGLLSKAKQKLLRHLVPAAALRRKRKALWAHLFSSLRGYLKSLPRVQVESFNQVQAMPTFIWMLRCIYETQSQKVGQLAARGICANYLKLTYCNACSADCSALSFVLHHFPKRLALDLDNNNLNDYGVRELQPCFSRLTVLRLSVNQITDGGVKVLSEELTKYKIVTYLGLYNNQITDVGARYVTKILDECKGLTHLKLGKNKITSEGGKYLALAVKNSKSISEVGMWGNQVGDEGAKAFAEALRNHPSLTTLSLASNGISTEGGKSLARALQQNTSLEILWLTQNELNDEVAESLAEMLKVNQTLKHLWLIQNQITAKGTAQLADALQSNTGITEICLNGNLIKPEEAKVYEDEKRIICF
In words: NOD1 signaling inhibitors, SAR follow-up, revised (AID 2333). The format is functional.

Another assay has as its system HEK293. In words: cells. The note with it: Homo sapiens.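 Also: cells exposed to compound for 14 hours overnight before viability readout.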

Sequence of Tumor necrosis factor (P01375 whole entry, the tested form may be a part): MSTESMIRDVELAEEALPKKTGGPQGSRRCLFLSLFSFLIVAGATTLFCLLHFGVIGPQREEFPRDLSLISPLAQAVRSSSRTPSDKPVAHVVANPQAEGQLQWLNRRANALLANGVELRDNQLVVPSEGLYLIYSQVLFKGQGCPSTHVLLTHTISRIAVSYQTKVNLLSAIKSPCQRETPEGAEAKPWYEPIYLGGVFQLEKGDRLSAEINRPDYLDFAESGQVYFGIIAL

For the molecule `CCOC(=O)C1(c2nc(N)cs2)COC(=O)C1` (stereo not given), in the assay with Escherichia coli, the AC50 is 24.9 µM (active).
Consider `CCC(C)(C)c1ccc(OCCCC[n+]2ccccc2)c(C(C)(C)CC)c1`, for which the results for the EC50 in [1] and in [2] were 0.357 µM (active) and 19.7 µM (active), respectively. The IC50 was > 20 µM (inactive) at Bcl-2-related protein A1, 16.9 µM (active) in [3], 17.3 µM (active) in assay [4] and 59.7 µM (inactive) in [6]. For the same molecule, the values for the concentration at half-maximal activity (AC50) (in [5]; with INS1; in the assay with A-375) were 4.35 µM (active), 2 µM (active) and 22.9 µM (active), respectively.
For the molecule `CCOc1ccc(NC(=O)CNC(=O)Cc2ccccc2)cc1`, in the assay with Escherichia coli, the AC50 is 25 µM (active).
With `COC(=O)Cn1c(C)nc2c(sc3nc(C)cc(C)c32)c1=O`, the AC50 in the assay with HeLa was > 350 µM (inactive).
In the case of `COc1ccc2oc(C[S+]([O-])c3ccccc3)c(C(=O)O)c2c1` (stereo not given), the IC50 (at Tumor necrosis factor; in [7]; in the assay with HEK293) was > 20 µM (inactive) throughout.

Usually AC50 stands for the midpoint of the concentration-response curve, whichever way the signal moves. What is called EC50 is the concentration that produces a half-maximal response. The term IC50 denotes the concentration needed to halve the response being measured.
